From ChEMBL document CHEMBL1144455, “A small molecule-kinase interaction map for clinical kinase inhibitors” (Nat Biotechnol, 2005)
pKd: −log10 of the molar value.

How the values were obtained:
[1] = molecular target: T1, Serine/threonine-protein kinase 3 (Mus musculus, UniProt Q9JI10)
T1 sequence (Q9JI10 whole entry): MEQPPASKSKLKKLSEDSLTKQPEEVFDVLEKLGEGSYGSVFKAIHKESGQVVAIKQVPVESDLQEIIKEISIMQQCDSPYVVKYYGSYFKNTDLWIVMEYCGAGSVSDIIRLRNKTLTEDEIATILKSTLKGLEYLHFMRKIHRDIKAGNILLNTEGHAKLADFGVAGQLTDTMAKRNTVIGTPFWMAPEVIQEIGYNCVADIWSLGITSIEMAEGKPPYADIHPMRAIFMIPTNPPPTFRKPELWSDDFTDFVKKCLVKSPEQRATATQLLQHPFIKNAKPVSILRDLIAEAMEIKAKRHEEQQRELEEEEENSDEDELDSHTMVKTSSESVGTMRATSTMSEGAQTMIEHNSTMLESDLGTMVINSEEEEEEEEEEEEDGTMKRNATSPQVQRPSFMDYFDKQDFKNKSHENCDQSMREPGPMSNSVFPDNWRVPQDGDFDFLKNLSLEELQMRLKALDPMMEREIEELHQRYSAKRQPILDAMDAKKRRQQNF

[2] = molecular target: STE20-like serine/threonine-protein kinase (Homo sapiens, UniProt Q9H2G2)
STE20-like serine/threonine-protein kinase, sequence (Q9H2G2 whole entry): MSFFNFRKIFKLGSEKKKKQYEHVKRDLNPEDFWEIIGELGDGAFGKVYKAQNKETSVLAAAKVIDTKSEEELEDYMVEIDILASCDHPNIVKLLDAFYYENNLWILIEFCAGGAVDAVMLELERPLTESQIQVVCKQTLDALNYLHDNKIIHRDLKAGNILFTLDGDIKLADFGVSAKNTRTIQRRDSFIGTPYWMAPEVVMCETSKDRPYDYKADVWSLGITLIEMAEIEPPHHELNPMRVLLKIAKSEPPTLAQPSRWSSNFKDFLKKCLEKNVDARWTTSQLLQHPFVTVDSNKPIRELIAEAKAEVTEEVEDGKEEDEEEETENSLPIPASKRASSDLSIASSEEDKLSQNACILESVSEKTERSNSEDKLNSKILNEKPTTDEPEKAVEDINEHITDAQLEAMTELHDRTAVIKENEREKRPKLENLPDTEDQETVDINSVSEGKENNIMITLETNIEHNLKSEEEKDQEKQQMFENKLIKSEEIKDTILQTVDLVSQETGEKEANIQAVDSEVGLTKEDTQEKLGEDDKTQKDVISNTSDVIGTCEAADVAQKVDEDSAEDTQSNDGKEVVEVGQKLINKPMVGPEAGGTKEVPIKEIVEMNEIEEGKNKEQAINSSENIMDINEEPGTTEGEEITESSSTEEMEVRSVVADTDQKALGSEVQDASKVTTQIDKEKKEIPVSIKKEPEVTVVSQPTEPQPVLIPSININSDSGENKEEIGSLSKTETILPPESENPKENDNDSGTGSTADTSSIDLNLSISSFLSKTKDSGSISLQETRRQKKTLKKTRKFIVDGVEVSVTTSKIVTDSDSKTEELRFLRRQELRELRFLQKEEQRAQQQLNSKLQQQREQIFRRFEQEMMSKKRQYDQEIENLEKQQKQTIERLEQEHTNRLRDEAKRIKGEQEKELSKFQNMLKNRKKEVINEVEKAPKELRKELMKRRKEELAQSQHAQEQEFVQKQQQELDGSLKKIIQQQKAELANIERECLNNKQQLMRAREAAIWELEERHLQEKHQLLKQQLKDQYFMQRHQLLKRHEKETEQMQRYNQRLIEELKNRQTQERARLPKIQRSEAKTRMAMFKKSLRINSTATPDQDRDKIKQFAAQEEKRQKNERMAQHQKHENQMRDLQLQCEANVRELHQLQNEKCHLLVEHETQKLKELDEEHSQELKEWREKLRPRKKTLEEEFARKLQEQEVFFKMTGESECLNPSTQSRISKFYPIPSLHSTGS

Ephrin type-A receptor 5 = Ephrin type-A receptor 5 (Homo sapiens, UniProt P54756)
[3] = molecular target: T2, Phosphorylase b kinase gamma catalytic chain, liver/testis isoform (Homo sapiens, UniProt P15735)
T2 sequence (P15735 whole entry): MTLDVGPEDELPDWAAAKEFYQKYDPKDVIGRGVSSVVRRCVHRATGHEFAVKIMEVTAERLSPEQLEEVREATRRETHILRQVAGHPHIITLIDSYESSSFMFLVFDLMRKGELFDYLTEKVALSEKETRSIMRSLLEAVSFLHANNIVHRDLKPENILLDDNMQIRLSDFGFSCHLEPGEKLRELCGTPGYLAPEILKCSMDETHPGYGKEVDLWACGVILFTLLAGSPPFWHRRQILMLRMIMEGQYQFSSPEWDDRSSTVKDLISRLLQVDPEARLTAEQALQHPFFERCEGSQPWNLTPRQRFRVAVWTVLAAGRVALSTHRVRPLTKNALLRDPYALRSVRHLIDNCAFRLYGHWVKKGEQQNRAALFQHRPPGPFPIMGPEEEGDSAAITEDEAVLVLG

[4] = molecular target: Ribosomal protein S6 kinase alpha-2 (Homo sapiens, UniProt Q15349)
Ribosomal protein S6 kinase alpha-2, sequence (Q15349 whole entry): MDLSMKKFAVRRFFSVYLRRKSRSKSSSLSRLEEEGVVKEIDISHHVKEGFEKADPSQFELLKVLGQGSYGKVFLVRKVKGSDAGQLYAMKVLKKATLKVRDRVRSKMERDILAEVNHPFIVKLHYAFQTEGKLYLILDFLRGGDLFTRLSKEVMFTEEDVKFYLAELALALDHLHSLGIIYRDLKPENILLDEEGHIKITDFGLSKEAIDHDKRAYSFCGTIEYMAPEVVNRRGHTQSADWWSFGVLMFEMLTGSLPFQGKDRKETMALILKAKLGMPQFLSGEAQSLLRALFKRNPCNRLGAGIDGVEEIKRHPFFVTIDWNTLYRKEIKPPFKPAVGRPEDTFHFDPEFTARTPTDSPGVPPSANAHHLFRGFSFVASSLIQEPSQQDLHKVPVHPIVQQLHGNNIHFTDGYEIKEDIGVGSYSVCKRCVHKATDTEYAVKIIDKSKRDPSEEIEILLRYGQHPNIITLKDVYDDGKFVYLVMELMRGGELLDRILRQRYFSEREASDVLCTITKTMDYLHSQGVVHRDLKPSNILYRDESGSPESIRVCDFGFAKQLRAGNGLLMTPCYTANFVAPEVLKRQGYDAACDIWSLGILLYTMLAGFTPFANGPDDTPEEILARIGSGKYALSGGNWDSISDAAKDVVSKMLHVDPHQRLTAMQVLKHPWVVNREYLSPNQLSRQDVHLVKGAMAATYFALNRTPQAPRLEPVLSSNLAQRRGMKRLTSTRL

[5] = molecular target: Serine/threonine-protein kinase PAK 1 (Homo sapiens, UniProt Q13153)
Serine/threonine-protein kinase PAK 1, sequence (Q13153 whole entry): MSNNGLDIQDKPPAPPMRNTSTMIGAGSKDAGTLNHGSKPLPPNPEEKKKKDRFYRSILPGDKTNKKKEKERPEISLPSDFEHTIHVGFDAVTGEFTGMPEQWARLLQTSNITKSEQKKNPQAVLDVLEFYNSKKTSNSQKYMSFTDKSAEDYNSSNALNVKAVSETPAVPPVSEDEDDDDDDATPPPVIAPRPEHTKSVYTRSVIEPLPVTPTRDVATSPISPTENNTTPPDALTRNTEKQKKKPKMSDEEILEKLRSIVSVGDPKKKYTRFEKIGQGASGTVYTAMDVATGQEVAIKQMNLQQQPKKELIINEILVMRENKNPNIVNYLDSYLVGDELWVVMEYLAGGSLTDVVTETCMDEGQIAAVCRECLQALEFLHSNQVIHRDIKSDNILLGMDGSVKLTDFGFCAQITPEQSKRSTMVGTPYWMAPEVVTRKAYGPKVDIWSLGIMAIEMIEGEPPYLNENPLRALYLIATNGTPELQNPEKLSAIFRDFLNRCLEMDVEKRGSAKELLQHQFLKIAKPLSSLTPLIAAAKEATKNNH

[6] = molecular target: Serine/threonine-protein kinase 38-like (Homo sapiens, UniProt Q9Y2H1)
Serine/threonine-protein kinase 38-like, sequence (Q9Y2H1 whole entry): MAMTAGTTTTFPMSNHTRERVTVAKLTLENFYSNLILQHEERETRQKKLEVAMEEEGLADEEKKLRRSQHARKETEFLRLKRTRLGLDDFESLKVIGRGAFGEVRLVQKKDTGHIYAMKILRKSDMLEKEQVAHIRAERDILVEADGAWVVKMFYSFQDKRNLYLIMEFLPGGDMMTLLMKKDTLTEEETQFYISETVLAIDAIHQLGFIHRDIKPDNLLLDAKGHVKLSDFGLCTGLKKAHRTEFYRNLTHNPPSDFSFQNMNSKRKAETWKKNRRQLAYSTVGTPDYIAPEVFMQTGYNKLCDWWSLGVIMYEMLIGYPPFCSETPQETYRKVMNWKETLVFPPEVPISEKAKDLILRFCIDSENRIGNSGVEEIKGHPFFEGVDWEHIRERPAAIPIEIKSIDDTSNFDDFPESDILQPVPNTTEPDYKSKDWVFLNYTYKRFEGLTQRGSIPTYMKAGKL

[7] = molecular target: Tyrosine-protein kinase FRK (Homo sapiens, UniProt P42685)
Tyrosine-protein kinase FRK, sequence (P42685 whole entry): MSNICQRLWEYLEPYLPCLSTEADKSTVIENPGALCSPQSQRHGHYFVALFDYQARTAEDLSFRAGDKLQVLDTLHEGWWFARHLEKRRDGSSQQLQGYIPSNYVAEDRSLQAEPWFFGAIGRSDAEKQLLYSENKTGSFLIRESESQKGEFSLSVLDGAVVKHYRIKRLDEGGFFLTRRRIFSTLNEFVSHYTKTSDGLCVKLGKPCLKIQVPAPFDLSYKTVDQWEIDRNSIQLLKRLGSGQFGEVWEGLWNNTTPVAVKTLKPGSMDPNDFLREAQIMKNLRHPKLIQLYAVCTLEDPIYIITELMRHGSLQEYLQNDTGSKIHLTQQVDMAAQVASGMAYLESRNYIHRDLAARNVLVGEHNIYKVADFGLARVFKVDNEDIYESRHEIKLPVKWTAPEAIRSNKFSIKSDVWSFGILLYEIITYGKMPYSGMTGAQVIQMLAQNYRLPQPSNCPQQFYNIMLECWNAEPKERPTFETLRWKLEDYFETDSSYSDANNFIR

[8] = molecular target: Protein-tyrosine kinase 6 (Homo sapiens, UniProt Q13882)
[9] = molecular target: T3, Serine/threonine-protein kinase ULK3 (Mus musculus, UniProt Q3U3Q1)
T3 sequence (Q3U3Q1 whole entry): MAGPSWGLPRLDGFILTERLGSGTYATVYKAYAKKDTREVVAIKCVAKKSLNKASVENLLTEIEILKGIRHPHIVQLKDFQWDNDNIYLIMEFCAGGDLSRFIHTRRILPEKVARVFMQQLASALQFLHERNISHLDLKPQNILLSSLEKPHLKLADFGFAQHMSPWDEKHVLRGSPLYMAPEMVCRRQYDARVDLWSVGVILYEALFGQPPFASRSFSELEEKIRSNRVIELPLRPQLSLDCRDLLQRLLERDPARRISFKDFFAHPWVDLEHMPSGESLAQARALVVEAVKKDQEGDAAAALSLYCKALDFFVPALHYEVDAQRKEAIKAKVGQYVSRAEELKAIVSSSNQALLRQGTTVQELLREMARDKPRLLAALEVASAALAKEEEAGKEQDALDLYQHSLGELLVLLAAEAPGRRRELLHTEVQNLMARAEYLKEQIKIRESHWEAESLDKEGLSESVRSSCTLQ

[10] = molecular target: BMP-2-inducible protein kinase (Homo sapiens, UniProt Q9NSY1)
BMP-2-inducible protein kinase, sequence (Q9NSY1 whole entry): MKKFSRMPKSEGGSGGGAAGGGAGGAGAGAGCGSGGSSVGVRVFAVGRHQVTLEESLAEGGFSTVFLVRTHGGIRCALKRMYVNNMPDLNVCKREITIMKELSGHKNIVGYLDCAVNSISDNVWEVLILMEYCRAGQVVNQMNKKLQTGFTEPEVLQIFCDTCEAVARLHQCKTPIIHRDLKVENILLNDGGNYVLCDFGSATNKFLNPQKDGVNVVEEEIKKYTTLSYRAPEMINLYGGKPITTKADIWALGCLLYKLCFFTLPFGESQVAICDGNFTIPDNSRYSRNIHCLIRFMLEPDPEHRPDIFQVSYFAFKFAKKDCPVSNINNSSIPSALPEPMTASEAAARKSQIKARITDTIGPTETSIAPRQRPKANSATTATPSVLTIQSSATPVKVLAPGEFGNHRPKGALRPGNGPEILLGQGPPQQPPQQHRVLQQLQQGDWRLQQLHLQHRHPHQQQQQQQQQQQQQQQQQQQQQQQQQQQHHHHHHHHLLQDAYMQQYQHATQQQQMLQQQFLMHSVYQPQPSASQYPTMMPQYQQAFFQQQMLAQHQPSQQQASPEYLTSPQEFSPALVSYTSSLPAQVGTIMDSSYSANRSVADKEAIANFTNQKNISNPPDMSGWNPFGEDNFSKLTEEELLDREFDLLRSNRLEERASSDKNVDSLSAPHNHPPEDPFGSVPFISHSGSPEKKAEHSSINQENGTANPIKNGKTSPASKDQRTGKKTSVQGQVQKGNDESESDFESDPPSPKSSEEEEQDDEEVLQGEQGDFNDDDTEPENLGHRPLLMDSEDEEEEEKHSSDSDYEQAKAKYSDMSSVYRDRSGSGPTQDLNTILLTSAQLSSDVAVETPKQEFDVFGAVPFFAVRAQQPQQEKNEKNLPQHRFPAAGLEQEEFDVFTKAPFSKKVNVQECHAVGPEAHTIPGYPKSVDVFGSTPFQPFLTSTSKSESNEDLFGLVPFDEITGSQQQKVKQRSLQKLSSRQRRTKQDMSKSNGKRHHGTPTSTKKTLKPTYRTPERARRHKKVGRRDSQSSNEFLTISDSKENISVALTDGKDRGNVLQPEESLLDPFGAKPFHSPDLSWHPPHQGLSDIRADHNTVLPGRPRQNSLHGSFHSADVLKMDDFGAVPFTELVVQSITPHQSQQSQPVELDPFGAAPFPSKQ

[11] = molecular target: T4, Dual specificity protein kinase TTK (Homo sapiens, UniProt P33981)
T4 sequence (P33981 whole entry): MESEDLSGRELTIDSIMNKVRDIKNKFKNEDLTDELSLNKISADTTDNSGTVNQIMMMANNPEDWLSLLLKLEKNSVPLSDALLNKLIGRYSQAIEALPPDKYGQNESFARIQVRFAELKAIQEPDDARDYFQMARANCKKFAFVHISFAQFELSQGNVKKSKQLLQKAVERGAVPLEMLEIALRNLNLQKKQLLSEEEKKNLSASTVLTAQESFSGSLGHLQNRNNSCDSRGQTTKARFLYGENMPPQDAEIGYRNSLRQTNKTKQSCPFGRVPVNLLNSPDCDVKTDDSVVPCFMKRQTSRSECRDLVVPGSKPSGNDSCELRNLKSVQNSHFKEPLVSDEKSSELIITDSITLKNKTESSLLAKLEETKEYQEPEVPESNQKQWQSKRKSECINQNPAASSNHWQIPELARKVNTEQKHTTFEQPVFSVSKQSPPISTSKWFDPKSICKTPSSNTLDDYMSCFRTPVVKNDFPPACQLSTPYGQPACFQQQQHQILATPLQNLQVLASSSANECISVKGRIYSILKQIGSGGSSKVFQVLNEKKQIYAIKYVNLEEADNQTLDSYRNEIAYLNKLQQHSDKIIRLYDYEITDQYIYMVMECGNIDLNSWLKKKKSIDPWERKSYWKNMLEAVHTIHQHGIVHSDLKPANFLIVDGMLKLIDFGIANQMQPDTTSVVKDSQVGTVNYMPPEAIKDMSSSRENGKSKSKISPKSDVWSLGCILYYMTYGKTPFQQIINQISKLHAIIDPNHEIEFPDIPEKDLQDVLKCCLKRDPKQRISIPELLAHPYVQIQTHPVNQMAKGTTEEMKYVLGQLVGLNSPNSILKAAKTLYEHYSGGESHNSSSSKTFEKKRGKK

[12] = molecular target: Death-associated protein kinase 2 (Homo sapiens, UniProt Q9UIK4)
Death-associated protein kinase 2, sequence (Q9UIK4 whole entry): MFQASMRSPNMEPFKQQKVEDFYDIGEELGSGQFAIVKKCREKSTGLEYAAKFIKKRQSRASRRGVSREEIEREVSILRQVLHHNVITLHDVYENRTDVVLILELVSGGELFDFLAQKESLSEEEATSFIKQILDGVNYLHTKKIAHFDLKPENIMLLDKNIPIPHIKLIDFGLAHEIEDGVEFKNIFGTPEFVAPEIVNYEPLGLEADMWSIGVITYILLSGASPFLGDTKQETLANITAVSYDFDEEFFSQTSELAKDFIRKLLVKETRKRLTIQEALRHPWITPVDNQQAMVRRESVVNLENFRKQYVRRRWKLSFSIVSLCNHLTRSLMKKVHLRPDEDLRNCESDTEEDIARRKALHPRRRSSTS

CCOc1cc2ncc(C#N)c(Nc3ccc(F)c(Cl)c3)c2cc1NC(=O)/C=C/CN(C)C [PELITINIB]
pKd [1]: 5.96
pKd [2]: 6.60
pKd (Ephrin type-A receptor 5): 6.15
pKd [3]: 5.60
pKd [4]: 5.09
pKd [5]: 5.68
pKd [6]: 5.51

Oc1ccc(-c2nc(-c3ccc(F)cc3)c(-c3ccncc3)[nH]2)cc1 [SB-202190]
pKd [7]: 5.22
pKd [8]: 5.52

Oc1c2ccccc2c2c3c(cccc13)N=N2 [SP-600125]
pKd [9]: 6.17
pKd [10]: 7.60
pKd [1]: 6.66
pKd [2]: 5.64
pKd [11]: 7.01
pKd [3]: 6.32
pKd [4]: 5.66
pKd [12]: 6.21
pKd [6]: 5.64
